Experimental data taken from patent US20230167088A1, “1-PYRAZINYLPYRAZOLYL-3-OXYALKYL ACIDS AND THEIR DERIVATIVES, AND THEIR USE FOR CONTROL OF UNDESIRED PLANT GROWTH” (BAYER AKTIENGESELLSCHAFT, priority 2020, published 2023).

Columns and labels:
ALOMY [1] = test: Herbicidal post-emergence action 1a (greenhouse pots, visual rating); assay type: in vivo, Alopecurus myosuroides; settings: rated visually about 3 weeks after treatment, 100% = plants have died, 0% = like control plants
Method in brief: (§1)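 Visual scoring versus untreated plants (100% = plants dead, 0% = as control) followed roughly 3 weeks in the greenhouse after treatment. Plants grown in sandy loam pots had been sprayed on green parts at the one-leaf stage, 2–3 weeks post-sowing, with aqueous WP/EC preparations containing 0.5% additive, 600 l/ha, at 320 and/or 80 g/ha.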

AVEFA [2] = test: Herbicidal pre-emergence action 2a (greenhouse pots, visual scoring); assay type: in vivo, Avena fatua; settings: dosage 320 g/ha, visual scoring after about 3 weeks
Method in brief: (§2)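 Weed and crop seeds placed in pots and covered with soil; aqueous suspension or emulsion of WP/EC formulation applied to the soil surface before emergence (600 l/ha, 0.5% additive, 320 and/or 80 g/ha). Pots kept in the greenhouse about 3 weeks; visual percentage scoring.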

AMARE [3] = test: as above; assay type: in vivo, Amaranthus retroflexus; settings: dosage 320 g/ha, visual scoring after about 3 weeks vs untreated controls
Method in brief: as §2

ECHCG [4] = test: Herbicidal pre-emergence action 2b (doubly sown, 1280 g/ha); assay type: in vivo, Echinochloa crus-galli; settings: doubly sown pots, dosage 1280 g/ha, visual scoring after about 3 weeks
Method in brief: (§3)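 Compounds were sprayed pre-emergence as wettable powders or emulsion concentrates onto soil covering freshly sown weed seeds, two species per pot. Percent activity was judged by eye roughly 3 weeks later versus untreated plants.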

LOLRI = test: Herbicidal pre-emergence action 2a (greenhouse pots, visual scoring); assay type: in vivo, Lolium rigidum; settings: dosage 320 g/ha, visual scoring after about 3 weeks vs untreated controls
Method in brief: as §2

ALOMY [5] = test: as above; assay type: in vivo, Alopecurus myosuroides; settings: dosage 320 g/ha, visual scoring after about 3 weeks
Method in brief: as §2

STEME = test: Herbicidal pre-emergence action 2b (doubly sown, 1280 g/ha); assay type: in vivo, Stellaria media; settings: doubly sown pots, dosage 1280 g/ha, visual scoring after about 3 weeks
Method in brief: as §3

AMARE [6] = test: as above; assay type: in vivo, Amaranthus retroflexus; settings: doubly sown pots, dosage 1280 g/ha, visual scoring after about 3 weeks
Method in brief: as §3

MATIN = test: as above; assay type: in vivo, Matricaria inodora; settings: doubly sown pots, dosage 1280 g/ha, visual scoring after about 3 weeks
Method in brief: as §3

AVEFA [7] = test: Herbicidal post-emergence action 1a (greenhouse pots, visual rating); assay type: in vivo, Avena fatua; settings: rated visually about 3 weeks after treatment, 100% = plants have died, 0% = like control plants
Method in brief: as §1

VIOTR = test: as above; assay type: in vivo, Viola tricolor; settings: visual rating about 3 weeks after treatment
Method in brief: as §1

POAAN = test: Herbicidal post-emergence action 1b (twin sowing, 1280 g/ha); assay type: in vivo, Poa annua; settings: dosage 1280 g/ha, visual rating about 3 weeks after treatment
Method in brief: (§4)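 Greenhouse weed pairs (mono- with dicotyledonous) were treated 2–3 weeks after sowing, at one leaf, using an aqueous spray at 600 L/ha carrying 0.5% additive. Percent activity, judged by eye against untreated plants, was recorded roughly 3 weeks post-application.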

POLCO = test: Herbicidal pre-emergence action 2a (greenhouse pots, visual scoring); assay type: in vivo, Polygonum convolvulus; settings: dosage 320 g/ha, visual scoring after about 3 weeks vs untreated controls
Method in brief: as §2

ECHCG [8] = test: Herbicidal post-emergence action 1b (twin sowing, 1280 g/ha); assay type: in vivo, Echinochloa crus-galli; settings: dosage 1280 g/ha, visual rating about 3 weeks after treatment
Method in brief: as §4

| SMILES | Post-emergence action against ALOMY in % (ALOMY [1]; Dosage 80 g/ha) [%] | Post-emergence action against ALOMY in % (ALOMY [1]; Dosage 320 g/ha) [%] | Pre-emergence action against AVEFA in % (AVEFA [2]) [%] | Pre-emergence action against AMARE in % (AMARE [3]) [%] | Pre-emergence action at 1280 g/ha against ECHCG in % (ECHCG [4]) [%] | Pre-emergence action against LOLRI in % (LOLRI) [%] | Pre-emergence action against ALOMY in % (ALOMY [5]) [%] | Pre-emergence action at 1280 g/ha against STEME in % (STEME) [%] | Pre-emergence action at 1280 g/ha against AMARE in % (AMARE [6]) [%] | Pre-emergence action at 1280 g/ha against MATIN in % (MATIN) [%] | Post-emergence action against AVEFA in % (AVEFA [7]; Dosage 80 g/ha) [%] | Post-emergence action against AVEFA in % (AVEFA [7]; Dosage 320 g/ha) [%] | Post-emergence action against VIOTR in % (VIOTR; dosage 80 g/ha) [%] | Post-emergence action against VIOTR in % (VIOTR; dosage 320 g/ha) [%] | Post-emergence action at 1280 g/ha against POAAN in % (POAAN) [%] | Pre-emergence action against POLCO in % (POLCO) [%] | Post-emergence action at 1280 g/ha against ECHCG in % (ECHCG [8]) [%] |
| --- | --- | --- | --- | --- | --- | --- | --- | --- | --- | --- | --- | --- | --- | --- | --- | --- | --- |
| COC(=O)C(C)Oc1nn(-c2cnccn2)c(-c2ccnc(F)c2)c1Cl (racemic) [Example I-05] | 100 | 100 | 80 | 100 | 100 | 100 | 100 | 100 | 100 | 90 | 90 | 100 | 90 | 90 | 100 | – | – |
| COC(=O)C(C)Oc1nn(-c2cnccn2)c(-c2cncc(F)c2)c1Br (racemic) [Example I-08] | 100 | 100 | 90 | 100 | – | 100 | 100 | – | – | – | 100 | 100 | 90 | 90 | – | 100 | – |
| COC(=O)C(C)Oc1nn(-c2cnccn2)c(-c2ccnc(F)c2)c1Br (racemic) [Example I-10] | 90 | 90 | 90 | 90 | – | 100 | 100 | 100 | 100 | 90 | 80 | 90 | 90 | 100 | 100 | – | – |
| COC(=O)C(C)Oc1nn(-c2cnccn2)c(-c2ccc(F)c(F)c2)c1C#N (racemic) [Example I-22] | 90 | 100 | 90 | 90 | 100 | 100 | 100 | 100 | 100 | 90 | 100 | 100 | 80 | 90 | 100 | 80 | – |
| CCOC(=O)COc1nn(-c2cnccn2)c(-c2ccccc2)c1Br [Example I-01] | – | 90 | – | 100 | 100 | 80 | 80 | 100 | 100 | 100 | – | – | 90 | 90 | – | 80 | – |
| COC(=O)COc1nn(-c2cnccn2)c(-c2cncc(F)c2)c1Br [Example I-07] | 90 | 100 | 90 | 100 | – | 100 | 100 | – | – | – | 100 | 100 | 80 | 90 | – | 90 | – |
| COC(=O)COc1nn(-c2cnccn2)c(-c2ccc(F)nc2)c1Br [Example I-11] | – | 100 | – | 90 | 90 | 100 | 100 | 100 | 100 | 90 | – | – | 90 | 100 | 100 | 90 | 90 |
| COC(=O)COc1nn(-c2cnccn2)c(-c2ccc(F)c(F)c2)c1Br [Example I-15] | 80 | 80 | 80 | 100 | – | 100 | 90 | – | – | – | 90 | 90 | 90 | 90 | – | – | – |
| COC(=O)[C@@H](C)Oc1nn(-c2cnccn2)c(-c2cccc(F)c2)c1Br [Example I-20] | 80 | 90 | 80 | 100 | 100 | – | 90 | 100 | 100 | 100 | 90 | 90 | 80 | – | 100 | 80 | 100 |
| COC(=O)[C@@H](C)Oc1nn(-c2cnccn2)c(-c2cncc(F)c2)c1C#N [Example I-40] | 80 | 90 | – | 90 | 100 | 90 | 100 | 100 | 100 | 100 | – | 80 | – | 80 | 100 | 80 | – |
| COC(=O)[C@@H](C)Oc1nn(-c2cnccn2)c(-c2ccc(F)c(F)c2)c1C#N [Example I-46] | 90 | 90 | 90 | 100 | 100 | 100 | 100 | 100 | 100 | 100 | 80 | 80 | – | – | 100 | 100 | 100 |
| CCOC(=O)COc1nn(-c2cnccn2)c(-c2ccc(F)nc2)c1Br [Example I-52, ethyl {[4-bromo-5-(6-fluoropyridin-3-yl)-1-(pyrazin-2-yl)-1H-pyrazol-3-yl]oxy}acetate] | 80 | 90 | – | 100 | – | 100 | 90 | 100 | 90 | 90 | – | – | – | 80 | – | 80 | – |
